US20150141506A1, “INDANE DIMERS FOR USE IN THE TREATMENT OF AUTOIMMUNE INFLAMMATORY DISEASE” (Venantius Limited, priority 2012, published 2015)
Converted amounts (≈) assume the structure as drawn. “Also recorded” adds a separate entry of the source. Read-outs that look alike come from different tables or passages of the source.

Tests used:
[1] = Plasma half-life in the rat; type: in vivo; settings: read-out: plasma half-life (t1/2) (converted)
[2] = Solubility in Milli-RO water and pH buffers; type: physicochemical
Description: The sodium salt, potassium salt, calcium salt, α-methylbenzylamine salt and N-Methyl-(D)-Glucamine salt were synthesised.
The solubility of the four compounds were determined: […]

[3] = test system: chronic colitis in IL10-/- BALB/c strain mice; test: Chronic IL10-/- colitis model; type: in vivo; settings: MWF
Description: FIG. 15: Is a group showing weight loss in IL10^−−/−− mice treated with vehicle or compound 6. Mice were administered compound 6 (300 mg/kg/week) or vehicle orally on a Monday/Wednesday/Friday (MWF) dosing schedule. Mice were ˜4 weeks of age at start of experiment and were treated for 9 weeks. Mice were weighed weekly and data are presented as Mean±SEM from 9-12 mice per group. Mice were monitored for overt disease, rectal prolapse, and moribund animals were humanely killed;
Mice with a deletion in the IL10^−−/−− gene spontaneously develop chronic colitis, with the age of onset and the severity of the disease being dependent on background mouse strain and the conditions in which the animals are housed. The onset of colitis in IL10^−−/−− mice housed under the conditions used in this study was also strain dependent, with an earlier onset and greater severity, in terms of mortality, in BALB/c strain mice relative to C57BL/6 strain animals. In this experiment, animals received oral treatment on a MWF regime over 9 weeks. Initially, both groups of mice progressively gain weight (FIG. 15). […] By week 9 animals had marked weight loss, with one moribund animal humanely killed on day 60 in each group. As other mice were losing weight and developing clinical symptoms of disease, both groups were culled at week 9 (day 63) and analysed.

[4] = Partition coefficient (Log10 POW) by HPLC method; type: physicochemical; settings: reverse phase C18 HPLC
[5] = test system: 5% DSS colitis in BALB/c mice; test: Acute murine 5% DSS colitis model, Experiment 1; type: in vivo
Description: The study is widely used as a model for studying the pathogenesis of UC and also for screening new therapeutic interventions for the treatment of UC.
In these studies, an acute colitis model was used, with 5% DSS administered in the drinking water of BALB/c mice. This dosage regime induces severe acute colitis, by days 7-8 mice had overt rectal bleeding and marked weight loss; unless sacrificed beforehand, all mice would have died by days 10-12.
Specific Pathogen-Free BALB/c mice, 6-8 weeks of age, were obtained from a commercial supplier (Harlan UK). Mice were fed irradiated diet and housed in individually ventilated cages (Tecniplast UK) under positive pressure.
DSS (5%) was dissolved in drinking water. Compounds were administered orally at a dose of 10 mg/kg or 30 mg/kg on days 0-7, and mice were culled on day 8 or day 9, depending on the severity of the disease. The mice were checked each day for morbidity and the weight of individual mice was recorded. Induction of colitis was determined upon autopsy, length of colon and histology. Colons were recovered and stored at −20° C. for immunological analysis. All of the compounds and experimental groups are randomly alphabetically labelled. Throughout experiments all data recording was performed in a blind manner. The codes on boxes/groups were not broken until after the data was analysed i.e. boxes labelled A, B, C etc were identified as untreated, DSS-treated, or DSS+compound-treated.
To quantify the extent of colitis, a disease activity index (DAI) was determined based on weight loss, faecal blood and stool consistency. A score was given for each parameter, with the sum of the scores used as the DAI. For each treatment group n=8.
All compounds were prepared for oral gavage (0.1 mL per os (p.o.) per 10 g body weight) as a suspension in 0.5% carboxymethyl cellulose/2% Tween 80, at a dose of 3-30 mg/Kg.

[6] = 3, 10 and 30 mg/Kg oral daily for 7 days

O=C(O)c1ccc(C[C@@]2(C3=Cc4ccccc4C3)Cc3ccccc3[C@H]2O)cc1 [Compound 6]
half-life [1]: 3 h | solubility ([2]; Milli-RO water, water, read-out: solubility, Milli-RO H20): > 60000 µg/mL | solubility ([2]; pH 4.0 buffer, pH 4, aqueous buffer, read-out: solubility, pH 4.0 Buffer): 0.5 µg/mL (≈ 0.00131 mM) | solubility ([2]; pH 7.0 buffer, pH 7, aqueous buffer, read-out: solubility, pH 7.0 Buffer): > 60000 µg/mL | solubility ([2]; pH 9.0 buffer, pH 9, aqueous buffer, read-out: solubility, pH 9.0 Buffer): > 3000 µg/mL | survival by Kaplan-Meier analysis versus vehicle ([3]; 300 mg/kg/week oral, 9 weeks): no statistical difference in survival | weight loss and deaths from colitis relative to vehicle, in words ([3]; 300 mg/kg/week oral, 9 weeks): delayed weight loss and reduced deaths from colitis | mortalities ([3]; 300 mg/kg/week oral, 9 weeks, vehicle 25%): 9.2% | weight gain maintained until ([3]; 300 mg/kg/week oral, vehicle stopped gaining from week 5): 8 week | Serum Amyloid A (SAA) levels relative to vehicle ([3]; week 9, 300 mg/kg/week oral): significantly (P<0.05; Student's t-test) reduced | extent of colon pathology (histology score) relative to vehicle ([3]; week 9, 300 mg/kg/week oral): significantly reduced | Log10 POW, Acid ([4]; acidic pH): 2.6 | Log10 POW, Basic ([4]; alkaline pH): 4.3 | Log10 POW, Neutral ([4]; neutral pH): 3.5 | colon pathology (histology score) relative to vehicle ([5]; 10 mg/Kg): highly statistically significant reduction | colon pathology (histology score) relative to vehicle ([5]; 30 mg/Kg): highly statistically significant reduction | overt reactions in mice [5, 6]: caused no overt reactions | severity of colitis, multiple parameters of disease [5, 6]: ameliorated the severity of colitis; also recorded: dose-dependent | DAI on the day of autopsy versus vehicle controls ([5]; 3-30 mg/kg, each dose level): significantly (P<0.05-P<0.01) lower | potency compared among the four enantiomers, in words ([5]; 30 and 10 mg/kg): most potent of the four enantiomers | efficacy relative to prednisolone at 5 mg/Kg ([5]; compound 6 at 30 mg/Kg): comparable, or better; also recorded: comparable or better | inhibition of colon shortening versus vehicle controls ([5]; day 7, 3 mg/kg): did not have a significant effect | inhibition of colon shortening versus vehicle controls ([5]; day 7, 10 mg/kg): did have a significant effect | disease activity index (DAI) ([5]; day 7, 10 mg/kg daily for 7 days, vehicle 9.3±0.51): 3.3±0.52 | colon cytokine levels (IL1β, TNFα, IL6) ([5]; day 7, 30 mg/kg): significant (P<0.05, 30 mg/kg) and dose-dependant reduction | inhibition of colon shortening versus vehicle controls ([5]; day 7, 30 mg/kg): did have a significant effect; also recorded: significantly better than Prednisolone | reduction of colonic myeloperoxidase (MPO) activity ([5]; day 7, 30 mg/kg): 63%
